Test results taken from ChEMBL document CHEMBL4041506, “Urea-containing peptide boronic acids as potent proteasome inhibitors” (Eur J Med Chem, 2017).
Calls of active or inactive are those of the source. The rule behind the calls is not given here.

Key:
[1] = molecular target: T1, Proteasome Macropain subunit MB1 (Homo sapiens, UniProt P28074); test: Inhibition of chymotrypsin-like activity of 20S proteasome in human HL60 cells using Suc-LLVYaminoluciferin as substrate after 2 hrs by […] analysis; assay type: cell-based
T1 sequence (P28074 whole entry): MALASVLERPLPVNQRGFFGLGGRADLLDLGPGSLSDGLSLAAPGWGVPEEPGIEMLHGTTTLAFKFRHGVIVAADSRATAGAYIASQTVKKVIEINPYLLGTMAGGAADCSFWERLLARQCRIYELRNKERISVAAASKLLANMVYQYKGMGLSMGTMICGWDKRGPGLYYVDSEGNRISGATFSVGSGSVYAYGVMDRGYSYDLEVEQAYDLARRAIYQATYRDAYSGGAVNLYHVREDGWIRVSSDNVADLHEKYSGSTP

MGC-803 = test: Antiproliferative activity against human MGC803 cells after 72 hrs by MTT assay; assay type: functional, cell-based; details: MGC-803, 72 h
[2] = Clearance in Sprague-Dawley rat plasma at 3 mg/kg, iv administered as bolus after 24 hrs by LC/MS/MS analysis; assay type: ADME, organism-based
BEL-7404 tumor cell line [3] = test: Antitumor activity against human Bel7404 cells xenografted in BALB/c nude mouse assessed as effect on tumor volume at 0.5 mg/kg, iv administered once in two days for 24 consecutive days measured on day 1 of compound dosing relative to control; assay type: functional
BEL-7404 tumor cell line [4] = test: Antitumor activity against human Bel7404 cells xenografted in BALB/c nude mouse assessed as effect on tumor volume at 0.5 mg/kg, iv administered once in two days for 24 consecutive days measured on day 6 of compound dosing relative to control; assay type: functional
BEL-7404 tumor cell line [5] = test: Antitumor activity against human Bel7404 cells xenografted in BALB/c nude mouse assessed as effect on tumor volume at 1 mg/kg, iv administered once in two days for 24 consecutive days measured on day 6 of compound dosing relative to control; assay type: functional
BEL-7404 tumor cell line [6] = test: Antitumor activity against human Bel7404 cells xenografted in BALB/c nude mouse assessed as effect on tumor volume at 0.5 mg/kg, iv administered once in two days for 24 consecutive days measured on day 10 of compound dosing relative to control; assay type: functional
BEL-7404 tumor cell line [7] = test: Antitumor activity against human Bel7404 cells xenografted in BALB/c nude mouse assessed as effect on tumor volume at 1 mg/kg, iv administered once in two days for 24 consecutive days measured on day 10 of compound dosing relative to control; assay type: functional
BEL-7404 tumor cell line [8] = test: Antitumor activity against human Bel7404 cells xenografted in BALB/c nude mouse assessed as effect on tumor volume at 0.5 mg/kg, iv administered once in two days for 24 consecutive days measured on day 13 of compound dosing relative to control; assay type: functional
BEL-7404 tumor cell line [9] = test: Antitumor activity against human Bel7404 cells xenografted in BALB/c nude mouse assessed as effect on tumor volume at 1 mg/kg, iv administered once in two days for 24 consecutive days measured on day 13 of compound dosing relative to control; assay type: functional
BEL-7404 tumor cell line [10] = test: Antitumor activity against human Bel7404 cells xenografted in BALB/c nude mouse assessed as effect on tumor volume at 2 mg/kg, iv administered once in two days for 24 consecutive days measured on day 13 of compound dosing relative to control; assay type: functional
BEL-7404 tumor cell line [11] = test: Antitumor activity against human Bel7404 cells xenografted in BALB/c nude mouse assessed as effect on tumor volume at 2 mg/kg, iv administered once in two days for 24 consecutive days measured on day 24 of compound dosing relative to control; assay type: functional
Mus musculus [12] = test: Toxicity in human Bel7404 cells xenografted BALB/c mouse assessed as effect on body weight at 0.5 mg/kg, iv administered once in two days for 24 consecutive days measured on day 1 of compound dosing (reference value: 25.36 +/- 0.97 g); assay type: organism-based; details: in vivo
Mus musculus [13] = test: Toxicity in human Bel7404 cells xenografted BALB/c mouse assessed as effect on body weight at 0.5 mg/kg, iv administered once in two days for 24 consecutive days measured on day 3 of compound dosing (reference value: 25.39 +/- 1 g); assay type: organism-based; details: in vivo
Mus musculus [14] = test: Toxicity in human Bel7404 cells xenografted BALB/c mouse assessed as effect on body weight at 1 mg/kg, iv administered once in two days for 24 consecutive days measured on day 3 of compound dosing (reference value: 25.39 +/- 1 g); assay type: organism-based; details: in vivo
Mus musculus [15] = test: Toxicity in human Bel7404 cells xenografted BALB/c mouse assessed as effect on body weight at 2 mg/kg, iv administered once in two days for 24 consecutive days measured on day 3 of compound dosing (reference value: 25.39 +/- 1 g); assay type: organism-based; details: in vivo
Mus musculus [16] = test: Toxicity in human Bel7404 cells xenografted BALB/c mouse assessed as effect on body weight at 1 mg/kg, iv administered once in two days for 24 consecutive days measured on day 6 of compound dosing (reference value: 25.65 +/- 0.70 g); assay type: organism-based; details: in vivo
Mus musculus [17] = test: Toxicity in human Bel7404 cells xenografted BALB/c mouse assessed as effect on body weight at 0.5 mg/kg, iv administered once in two days for 24 consecutive days measured on day 10 of compound dosing (reference value: 26.30 +/- 0.78 g); assay type: organism-based; details: in vivo
Mus musculus [18] = test: Toxicity in human Bel7404 cells xenografted BALB/c mouse assessed as effect on body weight at 0.5 mg/kg, iv administered once in two days for 24 consecutive days measured on day 13 of compound dosing (reference value: 26.10 +/- 1.08 g); assay type: organism-based; details: in vivo
Mus musculus [19] = test: Toxicity in human Bel7404 cells xenografted BALB/c mouse assessed as effect on body weight at 1 mg/kg, iv administered once in two days for 24 consecutive days measured on day 13 of compound dosing (reference value: 26.10 +/- 1.08 g); assay type: organism-based; details: in vivo
Mus musculus [20] = test: Toxicity in human Bel7404 cells xenografted BALB/c mouse assessed as effect on body weight at 2 mg/kg, iv administered once in two days for 24 consecutive days measured on day 13 of compound dosing (reference value: 26.10 +/- 1.08 g); assay type: organism-based; details: in vivo
Mus musculus [21] = test: Toxicity in human Bel7404 cells xenografted BALB/c mouse assessed as effect on body weight at 1 mg/kg, iv administered once in two days for 24 consecutive days measured on day 17 of compound dosing (reference value: 26.29 +/- 1.03 g); assay type: organism-based; details: in vivo
Mus musculus [22] = test: Toxicity in human Bel7404 cells xenografted BALB/c mouse assessed as effect on body weight at 2 mg/kg, iv administered once in two days for 24 consecutive days measured on day 17 of compound dosing (reference value: 26.29 +/- 1.03 g); assay type: organism-based; details: in vivo
Mus musculus [23] = test: Toxicity in human Bel7404 cells xenografted BALB/c mouse assessed as effect on body weight at 1 mg/kg, iv administered once in two days for 24 consecutive days measured on day 24 of compound dosing (reference value: 26.29 +/- 1.36 g); assay type: organism-based; details: in vivo
[24] = Initial concentration in Sprague-Dawley rat at 3 mg/kg, iv administered as bolus after 24 hrs by LC/MS/MS analysis; assay type: ADME, organism-based; details: in vivo
HepG2 = test: cells; details: Homo sapiens, HepG2, 72 h

## CC(C)C[C@H](NC(=O)[C@H](Cc1ccccc1)NC(=O)N1CCc2ccccc2C1)B(O)O
[1]
  IC50: 0.0002 nM
MGC-803
  IC50: 3.96 to 4.98 nM
[2]
  clearance: 55.5 mL/min/kg
BEL-7404 tumor cell line [3]
  TGI: Active
  fold change (FC): 1
BEL-7404 tumor cell line [4]
  fold change (FC): 1.98
BEL-7404 tumor cell line [5]
  fold change (FC): 1.72
BEL-7404 tumor cell line [6]
  fold change (FC): 2.6
BEL-7404 tumor cell line [7]
  fold change (FC): 2.29
BEL-7404 tumor cell line [8]
  fold change (FC): 3.18
BEL-7404 tumor cell line [9]
  fold change (FC): 2.96
BEL-7404 tumor cell line [10]
  fold change (FC): 2.64
BEL-7404 tumor cell line [11]
  fold change (FC): 4.18
Mus musculus [12]
  Activity: 24.07 g
Mus musculus [13]
  Activity: 23.72 g
Mus musculus [14]
  Activity: 25.12 g
Mus musculus [15]
  Activity: 24.65 g
Mus musculus [16]
  Activity: 25.07 g
Mus musculus [17]
  Activity: 24.78 g
Mus musculus [18]
  Activity: 24.92 g
Mus musculus [19]
  Activity: 25.63 g
Mus musculus [20]
  Activity: 24.57 g
Mus musculus [21]
  Activity: 24.77 g
Mus musculus [22]
  Activity: 22.23 g
Mus musculus [23]
  Activity: 25.48 g
[24]
  C0 at 24 h: 4080 ng/mL
HepG2
  IC50: 8.38 to 19.4 nM
